Broadly, the EC50 is the concentration that produces a half-maximal response. Low readings indicate greater potency, high ones weaker potency.

We go through 1 molecule from paper PMC4708007 (Bioscience Reports, 2015).

The target of the test is T1, FtRelA (Francisella tularensis, UniProt Q5NEV0).
T1 construct: gene relA
Nature of the test: biochemical.

T1 sequence (Q5NEV0 1-647 limits assumed): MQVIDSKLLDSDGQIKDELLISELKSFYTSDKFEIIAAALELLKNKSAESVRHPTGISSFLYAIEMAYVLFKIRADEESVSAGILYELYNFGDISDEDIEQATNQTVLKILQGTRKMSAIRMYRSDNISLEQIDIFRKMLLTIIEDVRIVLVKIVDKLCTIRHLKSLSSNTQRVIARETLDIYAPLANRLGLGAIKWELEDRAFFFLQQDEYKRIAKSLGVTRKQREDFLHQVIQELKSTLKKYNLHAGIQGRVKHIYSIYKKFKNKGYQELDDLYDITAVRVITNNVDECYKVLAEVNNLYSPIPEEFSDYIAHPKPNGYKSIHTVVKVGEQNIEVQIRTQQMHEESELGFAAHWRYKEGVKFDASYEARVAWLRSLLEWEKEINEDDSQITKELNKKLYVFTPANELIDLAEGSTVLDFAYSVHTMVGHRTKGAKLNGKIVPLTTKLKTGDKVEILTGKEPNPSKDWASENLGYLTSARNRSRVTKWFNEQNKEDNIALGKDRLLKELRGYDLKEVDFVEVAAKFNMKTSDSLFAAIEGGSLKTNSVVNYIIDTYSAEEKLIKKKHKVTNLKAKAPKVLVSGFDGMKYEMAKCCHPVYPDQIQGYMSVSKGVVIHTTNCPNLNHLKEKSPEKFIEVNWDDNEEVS

`Nc1nc2c(ncn2[C@@H]2O[C@H](COP(=O)(O)OP(=O)(O)O)[C@@H](OP(=O)(O)OP(=O)(O)O)[C@H]2O)c(=O)[nH]1` [ppGpp] registered an EC50 of 60 ± 1.9 µM.
